Results reported in PMC11110727, “Exploiting thiol-functionalized benzosiloxaboroles for achieving diverse substitution patterns – synthesis, characterization and biological evaluation of promising antibacterial agents” (RSC Medicinal Chemistry, 2024).
≈ marks a conversion by molar mass, not a printed value. Read-outs that look alike come from different tables or passages of the source.

Tests used:
S. aureus ATCC 6538P = assay: Antibacterial activity: MIC/MBC determination and disc-diffusion; type: cell-based, Staphylococcus aureus; details: for diameter of inhibition zone: disc-diffusion, — = zone not observed; for MIC / MBC: Staphylococcus aureus, ATCC6538P
Outline: (§1)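 Yeasts are grown twice on Sabouraud dextrose agar and bacteria twice on tryptic soy agar (30 °C, 24–48 h). MIC and disc-diffusion testing follow EUCAST/CLSI, and fungicidal or bactericidal activity follows CLSI. Compounds are dissolved in DMSO.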

E. cloacae DSM 6234 = assay: Antibacterial activity: MIC/MBC, MIC with PAβN, disc-diffusion; type: cell-based, Enterobacter cloacae; details: Enterobacter cloacae, DSM6234
Outline: (§2)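 Strains were subcultured twice on TSA at 30 °C. They were then tested by disc diffusion (EUCAST/CLSI), by CLSI broth-microdilution MIC in Mueller–Hinton II broth and by CLSI MBC, with compounds in DMSO.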

P. aeruginosa ATCC 27853 = assay: as above; type: cell-based; details: Pseudomonas aeruginosa, ATCC27853
Outline: as §2

B. cepacia ATCC 25416 = assay: Antibacterial activity: MIC/MBC, disc-diffusion; type: cell-based, Burkholderia cepacia; details: Burkholderia cepacia, ATCC25416
Outline: as §2

[1] = tested on: B. bronchiseptica ATCC 4617; assay: Antibacterial activity: MIC/MBC, disc-diffusion; type: cell-based, Bordetella bronchiseptica; details: Bordetella bronchiseptica, ATCC4617
Outline: as §2

C. albicans ATCC 90028 = assay: Antifungal activity: MIC/MFC, disc-diffusion; type: cell-based, Candida albicans; details: Candida albicans, ATCC90028
Outline: as §1

[2] = tested on: C. guilliermondii IBA 155; assay: Antifungal activity: MIC/MFC, disc-diffusion; type: cell-based; details: Meyerozyma guilliermondii, IBA155
Outline: as §1

[3] = tested on: C. parapsilosis ATCC 22019; assay: Antifungal activity: MIC/MFC, disc-diffusion; type: cell-based; details: Lodderomyces parapsilosis, ATCC22019
Outline: as §1

C. tropicalis ATCC 750 = assay: Antifungal activity: MIC/MFC, disc-diffusion; type: cell-based; details: Candida tropicalis, ATCC750
Outline: as §1

C. tropicalis IBA 171 = assay: Antifungal activity: MIC/MFC, disc-diffusion; type: cell-based; details: Candida tropicalis, IBA171
Outline: as §1

S. cerevisiae ATCC 9763 = assay: Antifungal activity: MIC/MFC, disc-diffusion; type: cell-based, Saccharomyces cerevisiae; details: Saccharomyces cerevisiae, ATCC9763
Outline: as §1

[4] = S. aureus ATCC 6538P, read-out: MBC (first MBC where Eagle effect)
[5] = S. aureus ATCC 6538P, read-out: MIC
[6] = E. cloacae DSM 6234, read-out: MIC
[7] = P. aeruginosa ATCC 27853, read-out: MIC
[8] = B. cepacia ATCC 25416, read-out: MIC
[9] = B. bronchiseptica ATCC 4617, read-out: MIC

SMILES | diameter of inhibition zone (S. aureus ATCC 6538P; S. aureus ATCC 6538P) [mm] | MBC (S. aureus ATCC 6538P; [4]) [µg/mL] | MIC (S. aureus ATCC 6538P; [5]) [µg/mL] | MIC (E. cloacae DSM 6234; [6]) [µg/mL] | MIC (P. aeruginosa ATCC 27853; [7]) [µg/mL] | MIC (B. cepacia ATCC 25416; [8]) [µg/mL] | MIC [1, 9] [µg/mL] | MIC (C. albicans ATCC 90028; read-out: MIC) [µg/mL] | MIC ([2]; read-out: MIC) [µg/mL] | MIC ([3]; read-out: MIC) [µg/mL] | MIC (C. tropicalis ATCC 750; read-out: MIC) [µg/mL] | MIC (C. tropicalis IBA 171; read-out: MIC) [µg/mL] | MIC (S. cerevisiae ATCC 9763; read-out: MIC) [µg/mL] | also measured
CCOP(=O)(OCC)Sc1c(F)cc2c(c1F)[Si](C)(C)OB2O [Compound 24, S-(5,7-Difluoro-3-hydroxy-1,1-dimethyl-1,3-dihydrobenzo[c][1,2,5]oxasilaborol-6-yl) O,O-diethyl phosphorothioate] | 32 |  |  |  |  |  |  |  |  |  |  |  |  | MIC (S. aureus ATCC 6538P): 6.25 µg/mL (≈ 16.4 µM); MBC (S. aureus ATCC 6538P; read-out: MBC (first MBC where Eagle effect)): 12.5 µg/mL (≈ 32.7 µM); MBC (S. aureus ATCC 6538P; read-out: second MBC (Eagle effect)): > 400 µg/mL; MIC (E. cloacae DSM 6234): > 400 µg/mL; MIC (P. aeruginosa ATCC 27853): > 400 µg/mL; MIC (B. cepacia ATCC 25416): > 400 µg/mL; MIC [1]: > 400 µg/mL; MIC (C. albicans ATCC 90028): > 400 µg/mL; MIC [2]: > 400 µg/mL; MIC [3]: > 400 µg/mL; MIC (C. tropicalis ATCC 750): > 400 µg/mL; MIC (C. tropicalis IBA 171): > 400 µg/mL; MIC (S. cerevisiae ATCC 9763): > 400 µg/mL
C[Si]1(C)OB(O)c2ccc(SC(=O)c3ccc(C(F)(F)F)cc3)c(F)c21 [Compound 25, S-(7-Fluoro-3-hydroxy-1,1-dimethyl-1,3-dihydrobenzo[c][1,2,5]oxasilaborol-6-yl) 4-(trifluoromethyl)benzothioate] | 11 | 25 (≈ 62.5 µM) | 12.5 (≈ 31.2 µM) | > 50 | > 50 | > 50 | > 50 | 50 (≈ 125 µM) | 50 (≈ 125 µM) | > 50 | > 50 | 50 (≈ 125 µM) | 25 (≈ 62.5 µM) | 
C[Si]1(C)OB(O)c2cc(F)c(S(=O)(=O)Cl)c(F)c21 [Compound 26, 5,7-Difluoro-3-hydroxy-1,1-dimethyl-1,3-dihydrobenzo[c][1,2,5]oxasilaborole-6-sulfonyl chloride] | 14 | 400 | 200 | > 400 | > 400 | > 400 | > 400 | > 400 | > 400 | > 400 | > 400 | > 400 | > 400 | 
C[Si]1(C)OB(O)c2cc(F)c(S(N)(=O)=O)c(F)c21 [Compound 27, 5,7-Difluoro-3-hydroxy-1,1-dimethyl-1,3-dihydrobenzo[c][1,2,5]oxasilaborole-6-sulfonamide] |  |  | 400 (≈ 1360 µM) | > 400 | > 400 | > 400 | > 400 | > 400 | > 400 | > 400 | > 400 | > 400 | > 400 | 
C[Si]1(C)OB(O)c2cc(F)c(S(=O)(=O)Nc3ccc(F)cc3)c(F)c21 [Compound 28, 5,7-Difluoro-N-(4-fluorophenyl)-3-hydroxy-1,1-dimethyl-1,3-dihydrobenzo[c][1,2,5]oxasilaborole-6-sulfonamide] | 22 |  | 50 (≈ 129 µM) | > 400 | > 400 | > 400 | > 400 | > 400 | > 400 | > 400 | > 400 | > 400 | > 400 | 
